Activity calls are given as the source filed them.
Columns and labels:
[1] = target: T1, Histone-lysine N-methyltransferase NSD2 (Homo sapiens, UniProt O96028); format: biochemical
T1 sequence (O96028 whole entry): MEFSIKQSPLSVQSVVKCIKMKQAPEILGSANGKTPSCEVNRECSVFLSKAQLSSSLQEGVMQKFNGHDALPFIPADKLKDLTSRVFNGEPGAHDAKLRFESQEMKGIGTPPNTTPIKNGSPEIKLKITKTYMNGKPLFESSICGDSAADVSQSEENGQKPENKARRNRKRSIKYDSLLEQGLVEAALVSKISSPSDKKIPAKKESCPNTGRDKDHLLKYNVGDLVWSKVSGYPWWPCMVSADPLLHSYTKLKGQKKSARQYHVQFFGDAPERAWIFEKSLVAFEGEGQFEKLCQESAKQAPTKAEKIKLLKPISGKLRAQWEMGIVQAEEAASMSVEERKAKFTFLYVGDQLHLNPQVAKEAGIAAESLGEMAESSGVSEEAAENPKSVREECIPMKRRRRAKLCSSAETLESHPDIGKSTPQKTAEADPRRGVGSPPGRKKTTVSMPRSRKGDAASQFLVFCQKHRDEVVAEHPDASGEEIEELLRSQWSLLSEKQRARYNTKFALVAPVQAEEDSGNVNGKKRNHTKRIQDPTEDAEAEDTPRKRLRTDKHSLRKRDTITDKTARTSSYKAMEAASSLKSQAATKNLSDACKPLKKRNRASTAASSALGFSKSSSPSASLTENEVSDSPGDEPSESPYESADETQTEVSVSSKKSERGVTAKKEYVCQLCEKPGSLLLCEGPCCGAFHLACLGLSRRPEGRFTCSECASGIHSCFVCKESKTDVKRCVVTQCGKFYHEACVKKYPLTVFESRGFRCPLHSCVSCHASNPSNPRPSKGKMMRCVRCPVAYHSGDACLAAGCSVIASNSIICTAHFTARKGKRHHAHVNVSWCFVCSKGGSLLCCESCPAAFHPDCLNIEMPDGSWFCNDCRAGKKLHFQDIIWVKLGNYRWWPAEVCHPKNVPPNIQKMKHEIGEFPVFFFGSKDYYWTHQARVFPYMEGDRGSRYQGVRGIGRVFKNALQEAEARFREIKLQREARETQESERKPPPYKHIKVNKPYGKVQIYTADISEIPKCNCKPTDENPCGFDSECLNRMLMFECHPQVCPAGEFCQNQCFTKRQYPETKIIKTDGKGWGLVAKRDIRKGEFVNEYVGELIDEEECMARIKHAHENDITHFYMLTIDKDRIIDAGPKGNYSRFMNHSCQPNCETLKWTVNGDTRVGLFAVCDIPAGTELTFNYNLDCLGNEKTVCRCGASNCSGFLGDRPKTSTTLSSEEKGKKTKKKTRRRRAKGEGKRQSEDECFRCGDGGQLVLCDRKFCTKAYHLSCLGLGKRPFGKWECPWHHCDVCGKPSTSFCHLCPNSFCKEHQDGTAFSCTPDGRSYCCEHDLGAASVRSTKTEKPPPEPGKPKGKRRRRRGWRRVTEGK

Estrogen receptor beta [2] = target: T2, Estrogen receptor beta (Homo sapiens, UniProt Q92731);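 further: recombinant ER-beta bound to coactivator SRC1 peptide in presence of estradiol agonist; inhibitors block coactivator peptide binding and lower the FRET signal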
T2 sequence (Q92731 whole entry): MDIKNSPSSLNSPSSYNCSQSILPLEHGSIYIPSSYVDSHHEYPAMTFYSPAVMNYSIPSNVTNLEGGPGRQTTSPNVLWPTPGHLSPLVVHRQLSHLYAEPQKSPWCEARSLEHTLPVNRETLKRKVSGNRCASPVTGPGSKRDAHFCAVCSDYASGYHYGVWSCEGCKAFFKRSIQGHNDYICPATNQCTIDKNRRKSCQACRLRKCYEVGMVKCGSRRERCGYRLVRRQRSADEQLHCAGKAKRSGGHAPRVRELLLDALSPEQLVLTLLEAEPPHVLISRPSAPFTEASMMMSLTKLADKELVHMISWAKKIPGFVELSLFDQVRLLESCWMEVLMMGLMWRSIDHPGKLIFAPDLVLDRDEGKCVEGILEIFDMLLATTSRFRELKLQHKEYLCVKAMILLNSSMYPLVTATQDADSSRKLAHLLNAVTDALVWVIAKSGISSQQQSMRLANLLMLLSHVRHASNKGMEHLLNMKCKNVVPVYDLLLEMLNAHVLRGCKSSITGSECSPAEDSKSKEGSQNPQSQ

[3] = target: Intestinal-type alkaline phosphatase (Homo sapiens, UniProt P09923); test: inhibition of human intestinal alkaline phosphatase – biochemical, dose response (AID 488876); format: functional
Sequence of Intestinal-type alkaline phosphatase (Homo sapiens, UniProt P09923) (P09923 whole entry): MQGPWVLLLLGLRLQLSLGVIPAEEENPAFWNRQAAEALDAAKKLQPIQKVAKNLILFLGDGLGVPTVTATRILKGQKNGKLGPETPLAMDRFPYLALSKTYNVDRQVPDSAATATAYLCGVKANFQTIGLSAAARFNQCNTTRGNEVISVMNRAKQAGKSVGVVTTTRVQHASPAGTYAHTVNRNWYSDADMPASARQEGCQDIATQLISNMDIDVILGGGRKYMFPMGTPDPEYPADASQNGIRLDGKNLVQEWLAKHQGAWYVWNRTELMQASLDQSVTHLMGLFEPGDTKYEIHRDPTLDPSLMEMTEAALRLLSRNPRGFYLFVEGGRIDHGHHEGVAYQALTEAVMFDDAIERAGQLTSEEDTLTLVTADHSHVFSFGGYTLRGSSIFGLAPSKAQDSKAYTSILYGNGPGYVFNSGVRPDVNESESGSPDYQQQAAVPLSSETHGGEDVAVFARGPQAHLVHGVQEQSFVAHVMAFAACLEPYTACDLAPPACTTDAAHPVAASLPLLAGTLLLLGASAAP

[4] = fluconazole-exposed Candida albicans growth modulators – fluorescence, retest, confirmation (AID 2467); format: functional, cell-based
[5] = NIH-3T3 fibroblast cytotoxicity, dose response, cytotoxicity control, cell-based, fluorescence, Alamar Blue, secondary assay (AID 2327); format: functional;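 further: NIH-3T3 mouse fibroblasts cultured with fluconazole at 8 µg/mL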
Large T antigen = Large T antigen (Simian virus 40, UniProt P03070); format: functional, Betapolyomavirus macacae;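 further: Confirmatory-stage PubChem screen for compounds that inhibit SV40 T antigen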
Sequence of Large T antigen (P03070 whole entry): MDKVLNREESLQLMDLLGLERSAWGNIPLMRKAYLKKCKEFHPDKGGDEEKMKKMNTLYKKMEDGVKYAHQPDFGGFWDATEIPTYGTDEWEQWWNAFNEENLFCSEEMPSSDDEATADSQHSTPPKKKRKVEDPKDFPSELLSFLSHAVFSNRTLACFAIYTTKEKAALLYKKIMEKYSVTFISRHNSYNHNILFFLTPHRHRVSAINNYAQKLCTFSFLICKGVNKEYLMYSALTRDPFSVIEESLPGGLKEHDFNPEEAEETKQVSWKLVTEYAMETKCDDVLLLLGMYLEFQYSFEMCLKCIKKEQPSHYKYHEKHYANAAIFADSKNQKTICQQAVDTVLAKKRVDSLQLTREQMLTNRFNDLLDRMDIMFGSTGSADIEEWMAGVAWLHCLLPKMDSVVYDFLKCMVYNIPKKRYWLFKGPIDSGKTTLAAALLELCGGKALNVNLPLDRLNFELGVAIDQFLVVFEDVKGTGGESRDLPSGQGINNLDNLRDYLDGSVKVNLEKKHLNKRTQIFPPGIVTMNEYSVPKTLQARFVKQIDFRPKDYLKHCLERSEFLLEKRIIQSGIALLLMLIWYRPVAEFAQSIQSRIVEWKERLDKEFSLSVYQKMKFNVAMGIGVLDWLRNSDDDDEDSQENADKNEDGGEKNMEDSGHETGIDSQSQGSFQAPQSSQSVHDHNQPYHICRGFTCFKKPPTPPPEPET

[6] = target: Intestinal-type alkaline phosphatase (Mus musculus, UniProt P24822); test: PubChem AID 488785; format: functional
Sequence of Intestinal-type alkaline phosphatase (Mus musculus, UniProt P24822) (P24822 whole entry): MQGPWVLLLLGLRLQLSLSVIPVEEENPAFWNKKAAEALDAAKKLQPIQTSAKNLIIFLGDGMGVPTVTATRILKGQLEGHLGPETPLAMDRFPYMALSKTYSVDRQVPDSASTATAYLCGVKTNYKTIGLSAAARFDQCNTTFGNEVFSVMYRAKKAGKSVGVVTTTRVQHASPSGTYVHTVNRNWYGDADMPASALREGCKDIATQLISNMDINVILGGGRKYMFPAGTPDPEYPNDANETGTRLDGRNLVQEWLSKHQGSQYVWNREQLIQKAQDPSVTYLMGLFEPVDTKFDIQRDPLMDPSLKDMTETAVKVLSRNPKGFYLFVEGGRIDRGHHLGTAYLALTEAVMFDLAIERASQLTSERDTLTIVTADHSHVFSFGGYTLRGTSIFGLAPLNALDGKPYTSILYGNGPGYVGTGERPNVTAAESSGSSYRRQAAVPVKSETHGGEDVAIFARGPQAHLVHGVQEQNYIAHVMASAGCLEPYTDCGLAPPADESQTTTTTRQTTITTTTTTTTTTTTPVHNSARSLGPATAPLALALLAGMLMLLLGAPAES

Estrogen receptor beta [7] = target: T2, Estrogen receptor beta; test: blockers of SRC-3 recruitment to ERβ – biochemical, ELISA, streptavidin-HRP readout, orthogonal assay, confirmation (AID 1060)
Bcl-2-like protein 1 = Bcl-2-like protein 1 (Homo sapiens, UniProt Q07817); test: blockers of BCLXL peptide binding – biochemical, fluorescence polarization, 1536-well, selectivity assay for MCL1 inhibitor project, dose response (AID 2218)
Sequence of Bcl-2-like protein 1 (Q07817 whole entry): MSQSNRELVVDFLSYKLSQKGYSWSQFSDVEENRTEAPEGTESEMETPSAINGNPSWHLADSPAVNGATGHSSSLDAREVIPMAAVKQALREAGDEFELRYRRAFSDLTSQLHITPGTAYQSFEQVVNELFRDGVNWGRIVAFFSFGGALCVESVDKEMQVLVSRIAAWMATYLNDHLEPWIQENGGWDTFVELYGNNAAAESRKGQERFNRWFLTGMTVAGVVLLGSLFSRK

[8] = target: Induced myeloid leukemia cell differentiation protein Mcl-1 (Homo sapiens, UniProt Q07820); test: blockers of MCL1 binding to BIM peptide – biochemical, fluorescence polarization, BIM-BH3 peptide, 1536-well, dose response (AID 2217)
Sequence of Induced myeloid leukemia cell differentiation protein Mcl-1 (Q07820 whole entry): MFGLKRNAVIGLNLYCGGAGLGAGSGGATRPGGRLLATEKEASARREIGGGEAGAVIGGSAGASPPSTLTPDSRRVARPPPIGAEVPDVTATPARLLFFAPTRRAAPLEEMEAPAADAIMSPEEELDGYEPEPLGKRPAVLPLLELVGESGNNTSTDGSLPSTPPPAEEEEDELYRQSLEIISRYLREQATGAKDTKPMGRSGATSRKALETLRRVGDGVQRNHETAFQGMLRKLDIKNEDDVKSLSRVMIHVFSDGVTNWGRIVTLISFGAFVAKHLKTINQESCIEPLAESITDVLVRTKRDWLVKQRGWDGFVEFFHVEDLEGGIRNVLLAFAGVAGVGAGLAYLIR

Leucine aminopeptidase = target: T3, Leucine aminopeptidase (Plasmodium falciparum 3D7, UniProt Q8IL11); test: P. falciparum M17LAP inhibitors, primary screen, biochemical, fluorogenic H-Leu-NHMec substrate, 1536-well (AID 1619); format: functional
T3 sequence (Q8IL11 whole entry): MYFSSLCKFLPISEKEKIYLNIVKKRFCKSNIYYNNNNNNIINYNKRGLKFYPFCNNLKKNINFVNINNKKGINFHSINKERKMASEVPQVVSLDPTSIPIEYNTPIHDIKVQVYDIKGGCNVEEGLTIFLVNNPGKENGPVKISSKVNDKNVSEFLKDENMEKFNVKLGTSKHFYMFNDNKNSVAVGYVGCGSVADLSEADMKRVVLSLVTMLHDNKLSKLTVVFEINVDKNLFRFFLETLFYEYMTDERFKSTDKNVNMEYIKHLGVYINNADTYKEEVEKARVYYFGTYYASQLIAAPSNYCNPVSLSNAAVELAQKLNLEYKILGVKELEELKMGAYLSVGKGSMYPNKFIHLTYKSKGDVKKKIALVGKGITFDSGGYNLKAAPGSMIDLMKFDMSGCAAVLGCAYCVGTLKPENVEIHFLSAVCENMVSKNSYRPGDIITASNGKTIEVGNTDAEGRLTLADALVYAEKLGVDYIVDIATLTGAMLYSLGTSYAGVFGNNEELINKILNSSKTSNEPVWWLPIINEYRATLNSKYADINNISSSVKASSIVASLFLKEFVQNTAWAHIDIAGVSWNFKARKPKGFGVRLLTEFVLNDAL

[9] = target: T4, Alkaline phosphatase, tissue-nonspecific isozyme (Homo sapiens, UniProt P05186); test: TNAP enzyme inhibition by screening hits, dose response, selectivity assay for mouse IAP inhibitor project, biochemical, human TNAP, uHTS hits (AID 488906); format: functional
T4 sequence (P05186 whole entry): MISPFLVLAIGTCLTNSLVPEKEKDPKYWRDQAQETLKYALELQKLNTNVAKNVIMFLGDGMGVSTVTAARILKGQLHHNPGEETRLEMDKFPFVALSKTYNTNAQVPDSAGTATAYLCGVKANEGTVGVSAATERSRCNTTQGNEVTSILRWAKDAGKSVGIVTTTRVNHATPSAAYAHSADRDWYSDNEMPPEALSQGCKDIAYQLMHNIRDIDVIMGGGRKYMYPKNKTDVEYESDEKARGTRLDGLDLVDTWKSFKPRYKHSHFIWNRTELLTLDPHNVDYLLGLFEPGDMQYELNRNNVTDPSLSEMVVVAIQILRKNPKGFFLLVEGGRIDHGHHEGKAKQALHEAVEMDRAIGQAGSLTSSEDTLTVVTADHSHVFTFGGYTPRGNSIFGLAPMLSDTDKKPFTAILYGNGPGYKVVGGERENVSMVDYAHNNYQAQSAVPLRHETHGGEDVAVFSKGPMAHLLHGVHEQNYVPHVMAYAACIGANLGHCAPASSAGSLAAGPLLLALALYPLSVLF

Albumin = Albumin (Bos taurus, UniProt P02769); test: Counterscreen for inhibitors of T-cell receptor (TCR)-CD3 interaction: Fluorescence-based biochemical high throughput dose response assay to identify inhibitors of T-cell receptor (TCR)-CD3 interaction using a TAMRA-labeled BSA probe.; format: functional
Sequence of Albumin (P02769 whole entry): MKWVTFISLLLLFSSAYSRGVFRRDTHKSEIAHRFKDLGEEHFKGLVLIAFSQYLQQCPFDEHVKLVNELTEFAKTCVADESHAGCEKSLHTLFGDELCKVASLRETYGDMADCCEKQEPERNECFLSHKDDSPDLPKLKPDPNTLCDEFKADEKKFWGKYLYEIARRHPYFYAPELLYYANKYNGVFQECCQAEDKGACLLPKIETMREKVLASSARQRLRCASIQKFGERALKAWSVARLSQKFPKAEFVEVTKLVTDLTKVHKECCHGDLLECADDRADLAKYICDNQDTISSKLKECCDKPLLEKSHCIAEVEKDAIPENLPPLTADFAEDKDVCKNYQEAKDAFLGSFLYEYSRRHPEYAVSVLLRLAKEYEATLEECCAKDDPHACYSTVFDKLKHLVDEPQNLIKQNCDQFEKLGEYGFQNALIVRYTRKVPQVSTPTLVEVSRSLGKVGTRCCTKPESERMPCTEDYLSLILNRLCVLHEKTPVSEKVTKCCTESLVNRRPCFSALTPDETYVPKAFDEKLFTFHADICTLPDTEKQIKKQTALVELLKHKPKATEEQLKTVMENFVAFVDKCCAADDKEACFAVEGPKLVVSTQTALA

[10] = target: T5, Aryl hydrocarbon receptor (Homo sapiens, UniProt P35869); test: Luminescence-based cell-based high throughput dose response assay for activators of the Aryl Hydrocarbon Receptor (AHR). [Related pubchem assays: 2796 (Primary screen (AHR activators in singlicate)), 2845 (Confirmation screen (AHR activators in triplicate)), 434939 (Counterscreen (PXR activators in triplicate)), 2804 (Summary (AHR activators))]; format: ADME
T5 sequence (P35869 whole entry): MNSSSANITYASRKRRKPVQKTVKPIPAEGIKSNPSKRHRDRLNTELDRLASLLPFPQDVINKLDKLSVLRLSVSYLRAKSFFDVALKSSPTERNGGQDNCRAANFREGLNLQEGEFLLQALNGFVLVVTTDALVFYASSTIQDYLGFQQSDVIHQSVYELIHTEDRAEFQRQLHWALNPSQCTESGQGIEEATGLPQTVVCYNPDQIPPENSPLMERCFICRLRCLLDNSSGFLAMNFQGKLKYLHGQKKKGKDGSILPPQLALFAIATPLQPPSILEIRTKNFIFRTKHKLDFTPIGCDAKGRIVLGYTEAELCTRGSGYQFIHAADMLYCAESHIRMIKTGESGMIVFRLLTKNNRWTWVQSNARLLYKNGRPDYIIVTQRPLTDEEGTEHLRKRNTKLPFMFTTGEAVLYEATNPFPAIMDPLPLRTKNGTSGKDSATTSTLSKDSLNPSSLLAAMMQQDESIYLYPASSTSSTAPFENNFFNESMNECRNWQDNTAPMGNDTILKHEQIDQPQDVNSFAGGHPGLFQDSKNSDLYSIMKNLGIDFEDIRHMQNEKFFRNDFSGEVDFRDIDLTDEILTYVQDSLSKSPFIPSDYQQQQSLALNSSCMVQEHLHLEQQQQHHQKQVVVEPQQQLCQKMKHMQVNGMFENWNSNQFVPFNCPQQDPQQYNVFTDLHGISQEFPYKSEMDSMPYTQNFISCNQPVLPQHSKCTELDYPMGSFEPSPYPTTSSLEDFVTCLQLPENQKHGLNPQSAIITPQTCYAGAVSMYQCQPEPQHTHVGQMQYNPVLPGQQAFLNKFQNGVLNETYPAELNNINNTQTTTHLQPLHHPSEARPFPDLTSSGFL

[11] = NIH3T3 cell viability loss – ATP luminescence, mouse fibroblasts, counter-screen, dose response (AID 2010); format: functional, cell-based;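 further: cells exposed to compound for about 90 hours before reading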
[12] = Trypanosoma cruzi growth suppression in host cells – NIH3T3 host cells, beta-gal luminescence, confirmation (AID 2044); format: functional, cell-based;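 further: intracellular parasites grown in NIH/3T3 mouse fibroblasts as host cells; luminescent beta-galactosidase reporter signal from transgenic T. cruzi replicating inside host cells; inhibitors lower the luminescence signal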

CCn1c(SCC(=O)c2ccc(O)c(O)c2)nnc1-c1ccccc1OC
AC50 [1]: 9.05 µM (active)
IC50 (Estrogen receptor beta [2]): 5.06 µM (active)
IC50 [3]: > 100 µM (inactive)
EC50 [4]: > 38 µM (not active)
EC50 [5]: > 160 µM (inactive)
IC50 (Large T antigen): 7.83 µM (active)
IC50 [6]: 1.43 µM (active)
IC50 (Estrogen receptor beta [7]): 93.8 µM (not active)
IC50 (Bcl-2-like protein 1): > 109 µM (not active)
IC50 [8]: 37.4 µM (not active)
IC50 (Leucine aminopeptidase): 24.4 µM (active)
IC50 [9]: > 100 µM (inactive)
IC50 (Albumin): > 94.1 µM (inactive)

COc1ccccc1NC(=O)c1ccc2c(c1)nnn2C
EC50 [10]: 0.195 µM (active)

O=C1NC(=O)N(C2CCCCCC2)C(=O)/C1=C/NC1CCN(Cc2ccccc2)CC1
EC50 (cells): 0.361 µM (active)
EC50 [11]: 23.5 µM (active)
EC50 [12]: < 0.1 µM (active)
